Source: patent US20150133664A1, “CHEMICAL TRANS[…] (-)-CODEINE TO AFFORD DERIVATIVES OF CODEINE AND MORPHINE THEREOF” (BOARD OF REGENTS, THE UNIVERSITY OF TEXAS SYSTEM, priority 2012, published 2015)

Test: potency compared with codeine and morphine (test not described)
Conditions: no assay, value or method printed

Row | Structure (SMILES) | potency compared with morphine (compared with morphine) | potency compared with codeine (compared with codeine)
1 | C[C@@H]1C[C@H]2[C@H]3Cc4ccc(O)c5c4[C@@]2(CCN3C)[C@@H](O5)C1O (stereo partly drawn) [Compound 9, 7β-Methyl-7,8-dihydromorphine] | increased potency | 
2 | COc1ccc2c3c1O[C@H]1C(O)[C@H](C)C[C@H]4[C@@H](C2)N(C)CC[C@]314 (stereo partly drawn) [Compound 8, 7β-Methyl-7,8-dihydrocodeine] |  | increased potency
